Molecules are shown by their SMILES.

One assay has as its system β-D-glucosidase. The assay is described as follows: Glycosidase inhibition: β-D-glucosidase, almond. It is filed as biochemical, Almonds (Prunus sp.). The note with it: for % inhibition, glucosidase: 1 mg/ml. How it is done: (§1) All enzymes were purchased from Sigma, as were the appropriate p-nitrophenyl substrates. Assays were carried out in microtitre plates. Enzymes were assayed in 0.1M citric acid/0.2M di-sodium hydrogen phosphate (McIlvaine) buffers at the optimum pH for the enzyme. All assays were carried out at 20° C. For screening assays the incubation assay consisted of 10 μl of enzyme solution, 10 μl of inhibitor solution (made up in water) and 50 μl of the appropriate 5 mM p-nitrophenyl substrate (3.57 mM final conc.) made up in McIlvaine buffer at the optimum pH for the enzyme.
(§2) The reactions were stopped with 0.4M glycine (pH 10.4) during the exponential phase of the reaction, which was determined at the beginning of the assay using blanks with water, which were incubated for a range of time periods to measure the reaction rate using 5 mM substrate solution. Endpoint absorbances were read at 405 nm with a Biorad microtitre plate reader (Benchmark). Water was substituted for the inhibitors in the blanks.

The target of a further assay is T1, α-D-mannosidase (Canavalia ensiformis, UniProt C0HJB3).
T1 construct: purchased Sigma
Briefly: Glycosidase inhibition: α-D-mannosidase. It is filed as biochemical, Jack beans (Canavalia ensiformis). The settings on record: read-out: % inhibition, mannosidase. The protocol: All enzymes were purchased from Sigma, as were the appropriate p-nitrophenyl substrates. Assays were carried out in microtitre plates. Enzymes were assayed in 0.1M citric acid/0.2M di-sodium hydrogen phosphate (McIlvaine) buffers at the optimum pH for the enzyme. All assays were carried out at 20° C.
Endpoint absorbances were read at 405 nm with a Biorad microtitre plate reader (Benchmark). Water was substituted for the inhibitors in the blanks.

A further assay deals with dendritic cells. The settings on record: treatment alone.
Assay [1] concerns N-acetyl-β-D-glucosaminidase. The assay is described as follows: Glycosidase inhibition: N-acetyl-β-D-glucosaminidase. It is filed as biochemical, Bovine. The settings on record: 1 mg/ml. The protocol: as §1, §2
The next assay concerns Naringinase. Briefly: Glycosidase inhibition: Naringinase. It is filed as biochemical, Penecillium decumbens. The note with it: 1 mg/ml. How it is done: as §1, §2
Assay [2] relates to α-D-glucosidase. Briefly: Glycosidase inhibition: α-D-glucosidase, Bacillus. It is filed as biochemical, Bacillus stearothermophilus. The settings on record: 1 mg/ml. How it is done:
as §1, §2

In assay [3] the test system is spleen cells from Leishmania major infected BALB/c mice. The assay is described as follows: Th1:Th2 response in non-healing leishmaniasis model, spleen cells ex vivo. The note with it: for IFN-γ: Table 10.1. It is filed as cell-based.
Assay [4] addresses T2, α-D-glucosidase (Oryza sativa subsp. japonica, UniProt Q653V7).
T2 construct: purchased Sigma
The assay is described as follows: Glycosidase inhibition: α-D-glucosidase, rice. It is filed as biochemical, rice (Oryza sativa). The settings on record: 1 mg/ml; read-out: % inhibition, gluc (rice). The protocol:
as §1, §2

Assay [5] deals with glycosidase enzymes of Table 4.1. Briefly: Glycosidase inhibition screening, whole enzyme panel. The settings on record: 1 mg/ml. It is filed as biochemical. The protocol:
as §1, §2

Another assay addresses T3, α-L-fucosidase (Bos taurus, UniProt Q2KIM0).
T3 construct: purchased Sigma
T3 sequence (Q2KIM0 23-468): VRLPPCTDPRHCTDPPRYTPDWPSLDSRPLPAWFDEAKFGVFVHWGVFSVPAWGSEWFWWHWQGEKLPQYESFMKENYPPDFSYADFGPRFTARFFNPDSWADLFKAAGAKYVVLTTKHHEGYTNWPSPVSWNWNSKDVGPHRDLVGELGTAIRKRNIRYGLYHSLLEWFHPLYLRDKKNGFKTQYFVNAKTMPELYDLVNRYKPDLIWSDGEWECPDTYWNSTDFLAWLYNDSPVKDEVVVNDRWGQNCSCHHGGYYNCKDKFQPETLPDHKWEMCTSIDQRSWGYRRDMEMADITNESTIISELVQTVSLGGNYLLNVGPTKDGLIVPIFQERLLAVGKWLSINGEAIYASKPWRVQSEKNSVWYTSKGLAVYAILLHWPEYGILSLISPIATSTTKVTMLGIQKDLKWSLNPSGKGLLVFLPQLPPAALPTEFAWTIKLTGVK
The assay is described as follows: Glycosidase inhibition: α-L-fucosidase. It is filed as biochemical, Bovine. The settings on record: 1 mg/ml; read-out: % inhibition, fucosidase. The protocol: as §1, §2

For assay [6], the system named is Influenza vaccine-specific IgG, IgG1 and IgG2a. The arrangement: species or system Balb/c mice. The note with it: mouse, in vivo.
The next assay concerns spleen cells. The assay is described as follows: Cytokine modulation in spleen cells (IFN-γ). It is filed as cell-based, BALB/c mice. The protocol:
BALB/c male and female mice bred and maintained at the University of Strathclyde under conventional conditions were used at varying age.
Cells suspensions were prepared by using the end of a syringe and grinding the spleen through a wire mesh. The cell suspension was then centrifuged at 1000 rpm for 5 minutes. To remove the erythrocytes, the cell pellet was resuspended in Boyle's solution (Tris 0.17M & Ammonium Chloride 0.16M) and centrifuged again for 5 minutes. The pellet was then washed in medium a further two times, then resuspended in 3 mls medium. A cell count was then carried out.
All spleen cell experiments were carried out in 96-well tissue culture plates. […] Unstimulated wells contained 100 μl of cells and 100 μl of medium. The stimulated wells contained 100 μl of cells plus 50 μl of LPS at 1 μg/ml or 50 μl anti-CD3 at 0.5 μg/ml and 50 μl of medium. The remaining wells contained 100 μl cells, 5 μl of MNLP compound and either 50 μl of anti-CD3 or medium alone.
The appropriate Mabs and standards were used according to the protocol described for IL-12 (described in Example 1, above).

In assay [7] the target is rabbit gut mucosa α-D-glucosidase. The assay is described as follows: Inhibition of rabbit gut mucosa α-D-glucosidase. Type of assay: biochemical.
The target of assay [8] is T4, α-D-glucosidase (Saccharomyces cerevisiae, UniProt P53341).
T4 construct: purchased Sigma
The assay is described as follows: Glycosidase inhibition (p-nitrophenyl substrate): α-D-glucosidase, yeast. Type of assay: biochemical, Saccharomyces cerevisiae (Baker's yeast). How it is done:
as §1, §2

A further assay deals with T5, α-D-galactosidase (Coffea arabica, UniProt Q42656).
T5 construct: purchased Sigma
Briefly: Glycosidase inhibition: α-D-galactosidase. Type of assay: biochemical, Green coffee beans (Coffea sp.). The note with it: 1 mg/ml; first galactosidase line; read-out: % inhibition, galactosidase. How it is done:
as §1, §2

Assay [9] concerns the target T6, rabbit small intestine trehalase (Oryctolagus cuniculus, UniProt P19813).
T6 construct: from tissue; host or cells: rabbit small intestine
Briefly: Inhibition of rabbit small intestine trehalase. It is filed as biochemical.

In assay [10] the test system is Na^+-dependent D-glucose uptake. Briefly: Na+-dependent D-glucose uptake into intestinal brush border membrane vesicles. Type of assay: biochemical, ovine.
For assay [11], the target named is T7, rabbit small intestine lactase (Oryctolagus cuniculus, UniProt P09849).
T7 construct: from tissue; host or cells: rabbit small intestine
The assay is described as follows: Inhibition of rabbit small intestine lactase. Type of assay: biochemical.

In assay [12] the target is T8, rabbit small intestine sucrase (Oryctolagus cuniculus, UniProt P07768).
T8 construct: from tissue; host or cells: rabbit small intestine
Briefly: Inhibition of rabbit small intestine sucrase. Type of assay: biochemical. The note with it: 700 μM.

The subject of another assay is β-D-galactosidase. The assay is described as follows: Glycosidase inhibition: β-D-galactosidase. The settings on record: 1 mg/ml; second galactosidase line. It is filed as biochemical, Bovine. The protocol:
as §1, §2

T2 sequence (Q653V7 34-885): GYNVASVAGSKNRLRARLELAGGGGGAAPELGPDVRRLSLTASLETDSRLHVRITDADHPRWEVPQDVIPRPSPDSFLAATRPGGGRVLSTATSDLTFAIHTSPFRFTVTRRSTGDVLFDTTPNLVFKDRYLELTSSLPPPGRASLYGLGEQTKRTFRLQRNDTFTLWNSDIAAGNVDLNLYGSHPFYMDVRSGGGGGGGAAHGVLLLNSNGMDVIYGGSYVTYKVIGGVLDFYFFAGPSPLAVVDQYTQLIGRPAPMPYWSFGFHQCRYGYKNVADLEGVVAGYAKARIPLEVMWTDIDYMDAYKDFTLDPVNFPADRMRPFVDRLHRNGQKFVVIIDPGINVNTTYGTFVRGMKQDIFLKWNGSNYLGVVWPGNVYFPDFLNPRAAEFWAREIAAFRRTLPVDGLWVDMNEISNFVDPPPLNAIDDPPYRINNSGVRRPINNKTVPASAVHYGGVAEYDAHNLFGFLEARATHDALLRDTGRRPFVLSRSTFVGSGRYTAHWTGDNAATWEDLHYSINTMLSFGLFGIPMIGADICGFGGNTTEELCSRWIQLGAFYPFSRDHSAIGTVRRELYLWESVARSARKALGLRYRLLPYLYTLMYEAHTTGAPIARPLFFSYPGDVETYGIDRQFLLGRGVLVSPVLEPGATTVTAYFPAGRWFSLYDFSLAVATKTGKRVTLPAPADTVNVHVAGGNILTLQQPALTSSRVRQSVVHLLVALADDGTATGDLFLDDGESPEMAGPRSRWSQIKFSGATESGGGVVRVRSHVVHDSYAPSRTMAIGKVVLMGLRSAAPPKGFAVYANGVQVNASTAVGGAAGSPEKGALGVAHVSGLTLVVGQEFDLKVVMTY
T4 sequence (P53341 whole entry): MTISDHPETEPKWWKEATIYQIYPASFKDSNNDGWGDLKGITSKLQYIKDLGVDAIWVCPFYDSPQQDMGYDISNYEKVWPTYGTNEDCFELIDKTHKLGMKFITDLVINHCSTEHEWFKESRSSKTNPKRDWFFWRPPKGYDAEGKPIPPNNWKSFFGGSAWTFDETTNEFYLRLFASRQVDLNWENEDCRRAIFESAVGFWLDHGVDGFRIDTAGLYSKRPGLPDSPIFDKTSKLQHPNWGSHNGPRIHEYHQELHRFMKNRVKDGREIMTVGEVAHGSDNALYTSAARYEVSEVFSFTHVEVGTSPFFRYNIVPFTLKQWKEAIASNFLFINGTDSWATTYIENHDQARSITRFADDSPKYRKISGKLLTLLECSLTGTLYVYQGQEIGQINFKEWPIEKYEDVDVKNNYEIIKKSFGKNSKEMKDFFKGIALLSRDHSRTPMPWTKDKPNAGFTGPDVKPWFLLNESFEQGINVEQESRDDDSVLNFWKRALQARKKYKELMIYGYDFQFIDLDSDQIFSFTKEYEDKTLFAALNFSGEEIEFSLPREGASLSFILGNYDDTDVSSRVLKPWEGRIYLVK
T1 sequence (C0HJB3 whole entry): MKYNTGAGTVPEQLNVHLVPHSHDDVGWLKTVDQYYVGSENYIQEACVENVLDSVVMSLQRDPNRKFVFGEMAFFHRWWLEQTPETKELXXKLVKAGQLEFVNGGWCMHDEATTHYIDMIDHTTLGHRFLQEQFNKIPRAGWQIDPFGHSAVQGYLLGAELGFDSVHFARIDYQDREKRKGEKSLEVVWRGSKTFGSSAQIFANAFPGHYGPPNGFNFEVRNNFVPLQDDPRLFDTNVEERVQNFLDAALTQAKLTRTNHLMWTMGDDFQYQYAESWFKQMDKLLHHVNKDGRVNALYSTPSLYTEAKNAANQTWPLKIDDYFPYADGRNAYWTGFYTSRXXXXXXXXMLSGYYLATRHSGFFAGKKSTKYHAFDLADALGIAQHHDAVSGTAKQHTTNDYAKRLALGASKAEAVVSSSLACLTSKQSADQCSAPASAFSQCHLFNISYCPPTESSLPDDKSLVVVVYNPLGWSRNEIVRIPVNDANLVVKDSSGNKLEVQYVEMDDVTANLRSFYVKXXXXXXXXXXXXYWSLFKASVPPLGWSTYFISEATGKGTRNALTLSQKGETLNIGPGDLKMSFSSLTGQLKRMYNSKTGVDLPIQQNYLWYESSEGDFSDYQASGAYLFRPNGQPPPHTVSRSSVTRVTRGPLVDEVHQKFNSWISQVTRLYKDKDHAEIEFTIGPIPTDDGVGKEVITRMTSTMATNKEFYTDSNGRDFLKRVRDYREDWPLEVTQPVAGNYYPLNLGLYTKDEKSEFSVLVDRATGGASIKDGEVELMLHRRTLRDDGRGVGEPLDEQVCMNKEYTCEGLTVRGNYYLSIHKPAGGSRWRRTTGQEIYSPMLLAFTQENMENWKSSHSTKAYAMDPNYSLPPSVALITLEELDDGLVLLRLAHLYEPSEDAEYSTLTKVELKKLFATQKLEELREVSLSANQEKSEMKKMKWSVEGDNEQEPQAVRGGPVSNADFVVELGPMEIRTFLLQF
T5 sequence (Q42656 16-378): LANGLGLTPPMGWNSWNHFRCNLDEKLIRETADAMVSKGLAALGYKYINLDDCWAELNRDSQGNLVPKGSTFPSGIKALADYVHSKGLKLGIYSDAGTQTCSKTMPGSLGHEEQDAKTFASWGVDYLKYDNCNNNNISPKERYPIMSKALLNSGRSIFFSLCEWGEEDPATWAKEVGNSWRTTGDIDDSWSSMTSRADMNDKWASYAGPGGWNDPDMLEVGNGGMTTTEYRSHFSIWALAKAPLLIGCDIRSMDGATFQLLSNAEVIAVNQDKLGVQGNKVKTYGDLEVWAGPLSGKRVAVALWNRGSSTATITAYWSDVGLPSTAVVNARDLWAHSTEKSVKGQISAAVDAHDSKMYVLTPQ
T6 sequence (P19813 20-555): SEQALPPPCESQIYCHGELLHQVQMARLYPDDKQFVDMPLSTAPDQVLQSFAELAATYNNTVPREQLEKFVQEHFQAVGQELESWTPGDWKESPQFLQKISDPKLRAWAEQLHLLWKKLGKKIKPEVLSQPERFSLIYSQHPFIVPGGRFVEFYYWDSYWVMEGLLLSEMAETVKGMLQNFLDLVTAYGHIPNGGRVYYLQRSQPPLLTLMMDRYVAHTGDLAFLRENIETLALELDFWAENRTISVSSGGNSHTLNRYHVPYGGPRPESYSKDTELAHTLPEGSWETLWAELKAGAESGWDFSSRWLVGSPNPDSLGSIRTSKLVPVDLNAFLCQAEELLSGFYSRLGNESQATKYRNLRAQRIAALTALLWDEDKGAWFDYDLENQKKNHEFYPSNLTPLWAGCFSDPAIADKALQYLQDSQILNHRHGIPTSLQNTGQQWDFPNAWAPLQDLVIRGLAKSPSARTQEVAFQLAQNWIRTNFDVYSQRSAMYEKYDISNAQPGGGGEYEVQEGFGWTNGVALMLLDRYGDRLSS
T7 sequence (P09849 867-1926): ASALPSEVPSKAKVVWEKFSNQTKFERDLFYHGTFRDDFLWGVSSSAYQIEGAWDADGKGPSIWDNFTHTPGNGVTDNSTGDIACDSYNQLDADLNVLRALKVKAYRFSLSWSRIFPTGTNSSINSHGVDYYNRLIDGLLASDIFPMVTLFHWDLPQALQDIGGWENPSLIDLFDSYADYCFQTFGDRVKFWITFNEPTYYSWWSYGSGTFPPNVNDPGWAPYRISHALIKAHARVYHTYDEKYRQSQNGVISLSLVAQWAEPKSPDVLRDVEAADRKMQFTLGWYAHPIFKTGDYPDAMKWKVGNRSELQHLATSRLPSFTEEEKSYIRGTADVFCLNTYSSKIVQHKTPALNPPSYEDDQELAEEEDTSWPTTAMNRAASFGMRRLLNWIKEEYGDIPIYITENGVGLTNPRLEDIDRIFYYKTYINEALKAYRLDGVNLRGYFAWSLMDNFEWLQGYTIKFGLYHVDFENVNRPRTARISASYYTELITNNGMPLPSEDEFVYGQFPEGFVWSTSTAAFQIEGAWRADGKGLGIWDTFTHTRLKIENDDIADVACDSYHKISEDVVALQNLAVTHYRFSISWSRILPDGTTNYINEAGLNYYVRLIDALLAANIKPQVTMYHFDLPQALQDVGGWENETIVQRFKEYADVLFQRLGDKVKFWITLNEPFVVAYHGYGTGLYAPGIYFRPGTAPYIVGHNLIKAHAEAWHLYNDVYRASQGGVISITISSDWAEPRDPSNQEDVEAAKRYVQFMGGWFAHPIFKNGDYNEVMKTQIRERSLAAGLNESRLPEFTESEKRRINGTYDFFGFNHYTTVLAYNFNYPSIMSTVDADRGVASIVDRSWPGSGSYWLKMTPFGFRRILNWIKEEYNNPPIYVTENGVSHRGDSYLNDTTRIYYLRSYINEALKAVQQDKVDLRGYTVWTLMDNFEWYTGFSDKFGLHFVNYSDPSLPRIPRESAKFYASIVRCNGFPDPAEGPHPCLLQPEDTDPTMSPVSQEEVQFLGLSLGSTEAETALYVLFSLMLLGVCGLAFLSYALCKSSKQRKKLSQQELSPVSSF

As usually defined, the inhibition is the relative decrease from the control value, in per cent. In the case of `OC[C@H]1[C@@H](O)[C@H](O)[C@H]2[C@@H](O)[C@@H](O)CN21` [3,7-diepi-casuarine (10), (1R,2R,3S,6S,7R,7aR)-3-(hydroxymethyl)-1,2,6,7-tetrahydroxypyrolizidine], the “% inhibition, glucosidase” value in the assay with β-D-glucosidase was 5%. The results for the inhibition at 1000 µg/mL on α-D-mannosidase, at α-D-glucosidase [4] and at α-L-fucosidase were 8%, 7% and 5%, respectively. The IL-2 in the assay on dendritic cells is 0.00 units/ml. Moreover, the “% inhibition, N-acetyl-β-gluc” value in assay [1] was −6%. Besides, in the assay on Naringinase, the “% inhibition, Naringinase” value came to 6%. The “% inhibition, gluc (Bacillus)” value in the assay on α-D-glucosidase [2] was −7%. Further, the IFN-γ in assay [3] (+ L. major Ag) was 5.5 ng/mL; in assay [3] (treatment alone), ~0.5 ng/mL; in the assay with spleen cells (Table 3.1, + αCD3), 13.50 ng/mL; in the assay on spleen cells (Table 3.1, treatment alone) it was 0.22 ng/mL. Also, the IL-5 in assay [3] (Table 10.2, + αCD3) was 150 pg/mL. Further, the “Th2-skewed immune response profile” value in [3] (ex vivo) is given as “clearly reversed”. Further, in [5], the “inhibition of the enzymes tested” value was “do not significantly inhibit any of the enzymes tested”. In addition, the “influenza-specific IgG1 response versus vaccine alone” value in [6] is “statistically significant increased”. Also, the “influenza-specific IgG2a responses versus vaccine alone” value in assay [6] is on record as “No significant differences”. Further, the “influenza-specific IgGtotal response versus vaccine alone” value in assay [6] is “statistically significant increased”.

Usually IC50 stands for the point on the concentration scale where inhibition reaches its midpoint. Low values mean greater potency in that assay, high ones weaker potency in that assay. One may read the Ki as a dissociation constant, usually derived from enzyme kinetics or from competition with a known ligand. Regarding `O[C@H]1[C@H](O)[C@@H](O)CN2CC[C@H](O)[C@H]12` [Castanospermine (20), Castanospermine, reference compound], the IC50 in assay [7] is 8 µM. The molecule also registered a Ki on β-D-glucosidase of 9 µM. Besides, in the assay on β-D-glucosidase, the “% inhibition, glucosidase” value amounted to 88%. Also, the inhibition at 1000 µg/mL at α-D-mannosidase is 9%; on α-D-glucosidase [8] (1 mg/ml, read-out: % inhibition, gluc (yeast)) it was -8%; on α-D-galactosidase, -3%; on α-D-glucosidase [4] it was 77%; on α-L-fucosidase, 3%. For the same molecule, the “% inhibition, N-acetyl-β-gluc” value in [1] is given as 16%. The “inhibition of yeast α-D-glucosidase” value against α-D-glucosidase [8] (800 μM) is listed as “not being inhibitory”. For the same molecule, the “% inhibition, Naringinase” value in the assay on Naringinase is 39%. Moreover, the “% inhibition, gluc (Bacillus)” value in the assay with α-D-glucosidase [2] stood at 6%. In addition, the inhibition at 700 µM in [9] and in assay [11] was > 50% in each case. Moreover, the Glucose uptake in assay [10] (initial rate, competition with labelled D-glucose, control 240) is 225 pmol/s/mg. In assay [10] (versus control), the “glucose transport, effect” value was “slightly inhibited”. Also, the “inhibition of rabbit small intestine sucrase” value in assay [12] is recorded as “inhibited”. The “IFN-γ secretion/production in splenocytes” value with spleen cells is on record as “inhibits”. Besides, the IFN-γ in the assay on spleen cells (Table 3.2, + αCD3) is 9.0 ng/mL; with spleen cells (Table 3.2, treatment alone), <1.0 ng/mL. Also, in the assay on β-D-galactosidase, the “% inhibition, galactosidase” value is listed as 16%.

Source of the values: US20090117083A1, “IMMUNOMODULATORY ALKALOIDS” (M N L PHARMA LIMITED, priority 2004, published 2009).
